According to paper PMC7217877, “N-AS-triggered SPMs are direct regulators of microglia in a model of Alzheimer’s disease” (Nature Communications, 2020):
Several values for one entry are separate records, joined by “and”; a condition that tells them apart may be missing. Equal entries are not always repeated.

Biological target: T1, COX2 S565A (Homo sapiens, UniProt P35354, S565A)
T1 construct: His (N); made in house
T1 sequence (P35354 18-604 S565A): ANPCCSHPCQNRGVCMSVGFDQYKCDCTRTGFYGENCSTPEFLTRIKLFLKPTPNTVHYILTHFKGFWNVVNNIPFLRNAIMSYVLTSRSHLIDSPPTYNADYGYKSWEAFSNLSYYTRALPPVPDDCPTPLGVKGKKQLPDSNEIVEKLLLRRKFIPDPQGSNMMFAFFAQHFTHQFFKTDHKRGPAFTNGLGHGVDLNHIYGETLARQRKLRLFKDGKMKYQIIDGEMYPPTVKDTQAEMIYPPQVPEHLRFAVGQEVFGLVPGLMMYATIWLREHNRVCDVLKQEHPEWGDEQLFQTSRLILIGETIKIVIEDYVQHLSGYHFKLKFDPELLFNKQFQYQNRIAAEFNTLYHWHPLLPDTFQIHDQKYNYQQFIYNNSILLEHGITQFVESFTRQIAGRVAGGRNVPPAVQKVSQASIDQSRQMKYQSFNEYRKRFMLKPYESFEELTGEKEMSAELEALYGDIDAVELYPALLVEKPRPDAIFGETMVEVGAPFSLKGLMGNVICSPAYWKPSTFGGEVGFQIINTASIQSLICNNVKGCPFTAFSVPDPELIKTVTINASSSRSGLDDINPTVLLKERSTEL
Assay: lipid mediator and SPM biosynthesis by recombinant COX2 with 5-LOX (LC-MS/MS)
Type: biochemical
Conditions: COX2 S565A + 5-LOX; replicates
Source text: Single point mutations in SphK1 (R56A, R57A, R24A, R185A, D178A, and F192A) and COX2 (S565A, N181A, T564A, and S567A) were generated using the In-Fusion Cloning Kits (Clontech) and ORF cDNA expression plasmids of human SphK1 and COX2 gene (Sino Biological Inc, HG15679-NH and HG12036-NH), according to the manufacturer’s instructions. The forward and reverse primers described in Supplementary Table 4. The SphK1 WT, SphK1 mutants, COX2 WT, and COX2 mutant plasmids were transformed in the One shot TOP 10 competent cell (Invitrogen). The bacteria were grown in Luria-Bertani (LB, Invitrogen) plates supplemented with 50 μg ml^−1 kanamycin (Sigma-Aldrich) at 37 °C. The bacterial cell pellets were resuspended in lysis buffer containing 20 mM sodium phosphate (GE Healthcare), 500 mM NaCl (GE Healthcare), 20 mM imidazole (pH 7.4) (GE Healthcare), 0.2 mg ml^−1 lysozyme (Sigma-Aldrich), 20 μg ml^−1 DNase I (Roche), 1 mM MgCl2 (Sigma-Aldrich), and 1 mM PMSF (Sigma-Aldrich) before being lysed by sonication and clarified by centrifugation at 15,493×g for 10 min. Proteins were purified from the soluble fraction using His-Spin Trap columns (GE Healthcare) and the binding and acetylation assays were performed.
Lipid mediators metabololipidomics were performed according to previously described procedures with minor modifications[4],[30]. To confirm the biosynthesis of lipid mediators by recombinant COX2 treated with N-AS or aspirin, 10 U of human recombinant COX2 (Cayman, 60122) was incubated in the presence of 500 μM aspirin (Sigma-Aldrich, A5376) or N-AS (Sigma-Aldrich, 01912) at 37 °C for 30 min. The enzyme was filtered with a Microcon column (Millipore) to remove unreacted aspirin or N-AS and was then resuspended in 0.1 M Tris-HCl (pH 8.0). Next, 500 μM phenol (Sigma-Aldrich) and 1 μM hematin-porcine (Sigma-Aldrich) were added immediately before incubation with 100 μM AA, EPA or DHA (Cayman) at 37 °C for 2 h, respectively. The mixtures were incubated with 30 U of human 5-LOX (Cayman, 60402) containing 2 mM CaCl2 (Sigma-Aldrich), 1 mM ATP (Amresco) and 5 μM 13-HpODE (Cayman) as activators. Also, to validate the importance of residue S565 for N-AS-acetylation of COX2 and production of SPMs, 10 U of the COX2 S565A mutant was used in the above-described method. In addition, to confirm SPM generation in neurons and microglia, these cells were treated with Aβ and sonicated in neuronal and glial culture medium. […] To evaluate the relationship of N-AS and SPM production in microglia, microglia were isolated from WT, APP/PS1, and APP/PS1 treated with N-AS mice at 9 months of age. The microglia were sonicated and resuspended in microglial culture medium. The supernatants were incubated with 100 μM AA, EPA, and DHA (Cayman) at 37 °C for 2 h. A 50 μl aliquot of the mixture from each cell lysate was added to a 250 μl aliquot of 1 ng ml^−1 of 15S-LXA4-d5 (internal standard, Cayman) methanol solution. After vortexing for 10 min and centrifuging at 15,974×g for 5 min, the supernatant was subjected to the analysis of the lipid mediators using an Agilent 6470 Triple Quad LC-MS/MS system (Agilent) coupled to an Agilent 1290 HPLC system. Chromatographic separation was achieved using a Synergi Polar RP (4 μm, 2.0 mm i.d. × 150 mm, Phenomenex). Analytes were eluted with a mobile phase consisting of water: formic acid (100:0.1 v/v) (phase A) and methanol: formic acid (100:0.1 v/v) (phase B) in gradient elution mode for 23 min a flow rate of 0.2 ml min^−1. The elution gradient was as follows: from 0 to 0.1 min the content of phase A was 37% and the content of phase A was decreased to 10% and maintained for 5.5 min. The content of phase A was increased back to 37% at 6.0 min and maintained for 23 min. Quantification was carried out using MRM in negative ionization mode and collision energy of 10–15 eV. The mass transition from Q1 to Q3 is shown in Supplementary Table 2. In this study, the peak areas for all components were automatically integrated using MassHunter B 06.00. […]

Structure (SMILES)	15R-LxA4 quantification (Fig 2c)	RvD1 quantification (Fig 2c)	RvE1 quantification (Fig 2c)
CC(=O)Oc1ccccc1C(=O)O [Aspirin, acetylsalicylic acid, reference compound]	9150.99 and 8986.22 and 7776.32 and 8811.42 and 9216.35 and 9050.41	427.4 and 465.61 and 668.98 and 626.93 and 591.63 and 656.31 and 339.99	3219.24 and 3312.36 and 4211.76 and 3281.98 and 3114.22 and 3326.6
CCCCCCCCCCCCC/C=C/[C@@H](O)[C@H](CO)NC(C)=O [N-AS, N-((2S,3R,E)-1,3-Dihydroxyoctadec-4-en-2-yl)acetamide]	4593.92 and 7037.27 and 8226.06 and 8467.27 and 8518.27	267.45 and 147.28 and 357.09 and 383.18 and 373.27 and 420.17 and 225.36	2644.24 and 1751.77 and 1695.83 and 1984.56 and 2632.92 and 1703.12 and 1993.09
